From patent US8829039B2, “Dihydroindolinone derivatives” (Shanghai Institute of Pharmaceutical Industry, priority 2008, dated 2014)

Key:
[1] = test system: Human cervical cancer cell Hela; assay: Anti-tumor activity assay (MTT), Hela; format: cell-based; conditions: 48 hrs, samples freshly prepared with DMSO, read-out: Inhibition rate; for inhibition at 0.1 µg/mL: final concentration 0.1 μg/mL; for inhibition at 1 µg/mL: final concentration 1 μg/mL; for inhibition at 10 µg/mL: final concentration 10 μg/mL
Method: (§1) These tests were carried out using conventional operations in the art. Specifically, the following materials and methods were employed:
(§2) Human cervical cancer cell Hela, human liver cancer cell SMMC-7721, human lung cancer cell A549, poorly differentiated human gastric adenocarcinoma cell BGC-823, human breast cancer cell MDA-MB-231.
(§3) To a bottle containing exponential growth phase cells in good condition, 0.25% trypsin solution was added. […] The cell suspension was seeded in a 96-well plate with an amount of 100 μL/well, incubated in a CO2 incubator for 24 hrs. 20 μL/well of tested compounds were added, followed by […], of 10% serum medium, and incubated for 48 hrs. 20 μL/well of MTT (5 mg/mL) was added to the 96-well plate, and the cells were incubated for 4 hrs in the incubator. After removing the supernatant, 150 μL/well of DMSO was added, and the cells were shaked in a horizontal swing bed for 10 minutes. Optical density value (OD value) of each well was measured with an ELISA analyzer at 490 nm, and cell inhibition rate was calculated. The corresponding solvent was used as negative control, and paclitaxel was used as positive control.

[2] = test system: human liver cancer cell SMMC-7721; assay: Anti-tumor activity assay (MTT), SMMC-7721; format: cell-based; conditions: 48 hrs, samples stored at −20° C. for one week, read-out: Inhibition rate; for inhibition at 0.1 µg/mL: final concentration 0.1 μg/mL; for inhibition at 1 µg/mL: final concentration 1 μg/mL; for inhibition at 10 µg/mL: final concentration 10 μg/mL
Method: as §1, §2, §3

[3] = test system: poorly differentiated human gastric adenocarcinoma cell BGC-823; assay: Anti-tumor activity assay (MTT), BGC-823; format: cell-based; conditions: 48 hrs, samples stored at −20° C. for one week, read-out: Inhibition rate; for inhibition at 0.1 µg/mL: final concentration 0.1 μg/mL; for inhibition at 1 µg/mL: final concentration 1 μg/mL; for inhibition at 10 µg/mL: final concentration 10 μg/mL
Method: as §1, §2, §3

[4] = test system: human lung cancer cell A549; assay: Anti-tumor activity assay (MTT), A549; format: cell-based; conditions: 48 hrs, samples stored at −20° C. for one week, read-out: Inhibition rate; for inhibition at 0.1 µg/mL: final concentration 0.1 μg/mL; for inhibition at 1 µg/mL: final concentration 1 μg/mL; for inhibition at 10 µg/mL: final concentration 10 μg/mL
Method: as §1, §2, §3

[5] = test system: human breast cancer cell MDA-MB-231; assay: Anti-tumor activity assay (MTT), MDA-MB-231; format: cell-based; conditions: 48 hrs, samples stored at −20° C. for one week, read-out: Inhibition rate; for inhibition at 0.1 µg/mL: final concentration 0.1 μg/mL; for inhibition at 1 µg/mL: final concentration 1 μg/mL; for inhibition at 10 µg/mL: final concentration 10 μg/mL
Method: as §1, §2, §3

Lung cancer cell H460 = assay: Inhibition of tumor cell proliferation in vitro (MTT), H460; format: cell-based; conditions: Homo sapiens, NCI-H460, 48 hrs, read-out: Growth inhibition in vitro IC50
Method: (§4) The activity assay of the compounds of the invention was carried out through common methods in the art. Commercially available Sunitinib was used as positive control, and lung cancer cell H460, colon cancer cell COLO205 and HT29, breast cancer cell A435 were used as exemplary tumor cells. The tested compounds were prepared by the methods disclosed in the Examples above.
(§5) A certain amount (100 μL/well, 0.5−1×10^4 cells/mL) of lung cancer cell H460, colon cancer cell COLO205, and breast cancer cell A435, etc. in logarithmic growth phase were seeded in a 96-well plate, and incubated in an incubator for 24 hrs at 37° C. and 5% CO2. Afterwards, tested compounds and positive control (20 μL/wells) were added, followed by 80 µL of 10% serum medium, and then the tumor cells were incubated for further 48 hrs at 37° C. and 5% CO2. Afterwards, MTT (5 mg/mL) was added to the 96-well plates (20 μL/well), and the cells were incubated for another 4 h. After removing the supernatant, the cells were dissolved with DMSO (150 μL/well) and measured with a microplate reader at 490 nm.

[6] = test system: colon cancer cell COLO205; assay: Inhibition of tumor cell proliferation in vitro (MTT), COLO205; format: cell-based; conditions: Homo sapiens, COLO 205, 48 hrs, read-out: Growth inhibition in vitro IC50
Method: as §4, §5

breast cancer cell A435 = assay: Inhibition of tumor cell proliferation in vitro (MTT), A435; format: cell-based; conditions: 48 hrs, read-out: Growth inhibition in vitro IC50
Method: as §4, §5

[7] = test system: human colon cancer HT-29 cells transplanted in nude mice; assay: Growth inhibition of human cancer HT-29 cells transplanted in nude mice; format: in vivo; conditions: for Body weight d0 / Body weight d21: nude mice with HT-29 tumor; for Body weight d0: d0, time of administration in separate cages; for Body weight d0 / TV d0: 30 mg/kg group; for Body weight d21 / T/C (%) / RTV / TV d21: 30 mg/kg intragastrically once a day for 21 days; for T/C (%): relative tumor proliferation rate TRTV/CRTV; for RTV: relative tumor volume TVt/TV0; for TV d0: tumor volume at d0, time of administration in separate cages; for TV d21: tumor volume at d21
Method: A piece of tumor tissue in vigorous growth phase was obtained and cut into the size of about 1.5 mm^3, and subcutaneously inoculated into the right axillary region of nude mice aseptically. Diameters of transplanted tumors in nude mice were measured with a vernier caliper. After tumors grew to 100˜300 mm^3, the animals were randomly divided into 6 groups: model control group, Sunitinib group (30 mg/kg), Compound 1 group (30 mg/kg), Compound 2 group (30 mg/kg), Compound 3 group (30 mg/kg), Compound 4 group (30 mg/kg). […] Meanwhile, the negative control group was administered equivalent amount of sterile saline. The dynamic observation of antitumor effects of compounds 1-4 and Sunitinib was performed by measuring tumor diameters. […] The general behavior of nude mice was observed and recorded daily. (1) Tumor volume (TV), calculated by the equation: […] wherein a, b represent length and width, respectively. […] RTV=TVt/TV0 wherein TV0 represents the tumor volume at the beginning of administration in separated cages (ie. d0), TVt represents the tumor volume of each measurement. […] T/C %=(TRTV/CRTV)×100% TRTV: RTV of positive control group and each test compound group. CRTV: RTV of model control group.

Fibroblast NIH/3T3 = assay: Inhibition of fibroblast NIH/3T3 proliferation (MTT); format: cell-based; conditions: Mus musculus, NIH3T3, 48 h, read-out: Inhibition of NIH/3T3 cell proliferation in vitro IC50
Excerpt: The method commonly used at present for studying fibroblast proliferation associated diseases, i.e., for studying tissue and organ fibrosis, is measuring effects of test compounds on NIH/3T3 cell proliferation (Gao Z. M., Wan K., Effect of inhibition of NIH/3T3 cell proliferation by Cantharidin on prevention and treatment of organ and tissue fibrosis. Chinese Journal of Clinical Rehabilitation, 2004 (2). Tao Y. Y., Wang X. L., Effects of Salvianolic Acid-B on TGF-β1/ERK Signaling Transduction in NIH/3T3 Fibroblast. Journal of Capital Medical University, 2007 (2)).
Fibroblast NIH/3T3 in logarithmic growth phase was seeded in a 96-well plate, by a certain number of cells (100 μL/well, 0.5−1×10^4 cells/mL). After incubating for 24 h, the screened samples (20 μl/well) were added (directly added after cell suspension was seeded in the plate), incubated for further 48 h at 37° C. and 5% CO2. Afterwards, MTT (5 mg/mL) was added to the 96-well plate (20 μL/well). The cells were incubated for another 4 h, and then dissolved with DMSO (150 μL/well) and measured with a microplate reader at 490 nm. The inhibition rate and IC50 were calculated.

SMILES	IC50 (Lung cancer cell H460)	IC50 [6]	IC50 (breast cancer cell A435)	inhibition at 0.1 µg/mL [1]	inhibition at 1 µg/mL [1]	inhibition at 10 µg/mL [1]	inhibition at 0.1 µg/mL [2]	inhibition at 1 µg/mL [2]	inhibition at 0.1 µg/mL [3]	inhibition at 1 µg/mL [3]	inhibition at 0.1 µg/mL [4]	inhibition at 1 µg/mL [4]	inhibition at 0.1 µg/mL [5]	inhibition at 1 µg/mL [5]	inhibition at 10 µg/mL [5]	Body weight d0 [7]	Body weight d21 [7]	T/C (%) [7]	RTV [7]	IC50 (Fibroblast NIH/3T3)	also measured
CCN1CCCC1CNC(=O)C(C)NC(=O)c1c(C)[nH]c(/C=C2\C(=O)Nc3ccc(F)cc32)c1C (stereo not drawn) [Compound 12, N-{2-[(1-ethylpyrrolidin-2-yl)methylamino]-1-oxoprop-2-yl}-5-(5-fluoro-2-oxo-1,2-dihydroindole-3-methylene)-2,4-dimethyl-1H-pyrrole-3-formamide]	440 nM	310 nM	160 nM																		
CCN(CC)CCNC(=O)c1c(C)[nH]c(/C=C2\C(=O)Nc3ccc(F)cc32)c1C [Sunitinib, reference compound]	680 nM	550 nM	630 nM	-0.21%	24.7%	99.2%	-38.8%	-12.3%	9.53%	19.2%	7.29%	29.1%	6.4%	28.9%	90.2%	20.4 ± 2.0 g	21.0 ± 1.9 g	51.5%	4.6 ± 1.5		inhibition at 10 µg/mL [2]: 72.5%; inhibition at 10 µg/mL [3]: 88.8%; inhibition at 10 µg/mL [4]: 98.7%; TV d0 [7]: 198.2 ± 62.4 mm^3; TV d21 [7]: 911.8 ± 481.7 mm^3
Cc1[nH]c(/C=C2\C(=O)Nc3ccc(F)cc32)c(C)c1C(=O)NCC1CCNCC1 [Compound 4]	580 nM	400 nM	220 nM													20.0 ± 2.2 g	20.3 ± 1.5 g	41.0%	3.6 ± 3.2	1180 nM	TV d0 [7]: 195.0 ± 67.4 mm^3; TV d21 [7]: 791.7 ± 815.0 mm^3
CC(=O)O[C@H]1C(=O)[C@@]2(C)[C@H]([C@H](OC(=O)c3ccccc3)[C@]3(O)C[C@H](OC(=O)[C@H](O)[C@@H](NC(=O)c4ccccc4)c4ccccc4)C(C)=C1C3(C)C)[C@]1(OC(C)=O)CO[C@@H]1C[C@@H]2O [Paclitaxel, reference compound]				79.7%	78.1%	72.7%	-6.71%	-6.59%	85.1%	86.6%	20.1%	23.8%	5.9%	4.9%	29.5%						

The next lines start with results.

IC50 (Lung cancer cell H460)	IC50 [6]	IC50 (breast cancer cell A435)	SMILES	inhibition at 0.1 µg/mL [1]	inhibition at 1 µg/mL [1]	inhibition at 10 µg/mL [1]	inhibition at 0.1 µg/mL [2]	inhibition at 1 µg/mL [2]	inhibition at 0.1 µg/mL [3]	inhibition at 1 µg/mL [3]	inhibition at 0.1 µg/mL [4]	inhibition at 1 µg/mL [4]	inhibition at 0.1 µg/mL [5]	inhibition at 1 µg/mL [5]	inhibition at 10 µg/mL [5]	Body weight d0 [7]	Body weight d21 [7]	T/C (%) [7]	RTV [7]	IC50 (Fibroblast NIH/3T3)	also measured
160 nM	110 nM	85 nM	Cc1[nH]c(/C=C2\C(=O)Nc3ccc(F)cc32)c(C)c1C(=O)NCCC1CCCN1C (stereo not drawn) [Compound 2, N-[(1-methylpyrrolidin-2-yl)ethyl]-5-(5-fluoro-2-oxo-1,2-dihydroindole-3-methylene)-2,4-dimethyl-1H-pyrrole-3-formamide]	-6.18%	24.7%	97.2%	-6.59%	-10.8%	4.73%	20.2%	0.59%	29.9%	-0.2%	16.5%	71.6%	19.7 ± 1.7 g	19.7 ± 1.6 g	17.8%	1.6 ± 0.9	536 nM	inhibition at 10 µg/mL [2]: 74.8%; inhibition at 10 µg/mL [3]: 76.2%; inhibition at 10 µg/mL [4]: 100%; TV d0 [7]: 193.5 ± 61.9 mm^3; TV d21 [7]: 342.9 ± 284.7 mm^3; melting point: 241 to 244 °C
170 nM	160 nM	91 nM	Cc1[nH]c(/C=C2\C(=O)Nc3ccc(F)cc32)c(C)c1C(=O)NCC(=O)Nc1ccc(N(C)C)cc1 [Compound 8, N-{2-[4-(dimethylamino)anilino]-2-oxoethyl}-5-(5-fluoro-2-oxo-1,2-dihydroindole-3-methylene)-2,4-dimethyl-1H-pyrrole-3-formamide]																	884 nM	
230 nM	170 nM	82 nM	Cc1[nH]c(/C=C2\C(=O)Nc3ccc(F)cc32)c(C)c1C(=O)Nc1ccc(N(C)C)cc1 [Compound 7, N-[4-(dimethylamino)phenyl]-5-(5-fluoro-2-oxo-1,2-dihydroindole-3-methylene)-2,4-dimethyl-1H-pyrrole-3-formamide]																	505 nM	
410 nM	280 nM	150 nM	CCN1CCCC1CNC(=O)CNC(=O)c1c(C)[nH]c(/C=C2\C(=O)Nc3ccc(F)cc32)c1C (stereo not drawn) [Compound 11, N-{2-[(1-ethylpyrrolidin-2-yl)methylamino]-2-oxoethyl}-5-(5-fluoro-2-oxo-1,2-dihydroindole-3-methylene)-2,4-dimethyl-1H-pyrrole-3-formamide]																		
330 nM	220 nM	87 nM	Cc1[nH]c(/C=C2\C(=O)Nc3ccc(F)cc32)c(C)c1C(=O)NC1CCN(Cc2ccccc2)C1 (stereo not drawn) [Compound 6, N-(1-benzylpyrrolidin-3-yl)-5-(5-fluoro-2-oxo-1,2-dihydroindole-3-methylene)-2,4-dimethyl-1H-pyrrole-3-formamide]																	698 nM	
